Measured values published in US20210379035A1, “Methods Of Treating Fabry Patients Having Renal Impairment” (Amicus Therapeutics, Inc., priority 2017, published 2021).

Columns and labels:
Fabry patients [1] = experiment: ERT-experienced study: renal function (eGFR, mGFR); assay type: in vivo, human; conditions: for Annualized Change in eGFRCKD-EPI, mean ± SE: ERT-Experienced, Migalastat 0-18 months; for mean annualized rate of change of eGFRCKD-EPI / mean annualized rate of change mGFRiohexol / mean±SE annualized rate of change of eGFRCKD-EPI: ERT-experienced study; for mean annualized rate of change of eGFRCKD-EPI: baseline to 18 months (FIG. 12A); for mean annualized rate of change mGFRiohexol: baseline to 18 months (FIG. 12B); for mean±SE annualized rate of change of eGFRCKD-EPI: baseline to 18 months (FIG. 13)
Procedure: One study was a 24-month trial, including a 6-month double-blind, placebo-controlled period, in 67 ERT-naïve patients. The other study was an active-controlled, 18-month trial in 57 ERT-experienced patients with a 12-month open-label extension (OLE). Both the ERT-naïve and ERT-experienced studies included Fabry patients having an eGFR of ≥30 mL/min/1.73 m^2. […] Annualized change in eGFR using the Modification of Diet in Renal Disease ([…]) was also calculated. […] Although the number of patients with moderate renal impairment included in this analysis is two (compared to three for the ERT-naïve study), the data supports the efficacy of migalastat when administered to patients with some form of renal impairment. A further analysis of data from these studies examined annualized change in […], WBC α-Gal A activity and plasma lyso-Gb3 levels based on renal function at baseline. The results for each renal subgroup are shown in Table 9 below, with the ERT-naïve study subgroups based on […] and the ERT-experienced study subgroups based on mGFRiohexol.

plasma lyso-GB3 = experiment: ERT-naïve study: plasma lyso-Gb3; assay type: in vivo, human
Procedure: (§1) One study was a 24-month trial, including a 6-month double-blind, placebo-controlled period, in 67 ERT-naïve patients. The other study was an active-controlled, 18-month trial in 57 ERT-experienced patients with a 12-month open-label extension (OLE). Both the ERT-naïve and ERT-experienced studies included Fabry patients having an eGFR of ≥30 mL/min/1.73 m^2.
A further analysis of data from these studies examined annualized change in eGFRCKD-EPI, LVMi, WBC α-Gal A activity and plasma lyso-Gb3 levels based on renal function at baseline. The results for each renal subgroup are shown in Table 9 below, with the ERT-naïve study subgroups based on eGFRMDRD and the ERT-experienced study subgroups based on mGFRiohexol.

Fabry patients [2] = experiment: Analysis of 52 ERT-naive patients by baseline proteinuria: eGFR; assay type: in vivo, human; conditions: for Annualized eGFRCKD-EPI Change Rate, Mean (SE): ERT-naive, migalastat HCl 150 mg QOD ≥17 months; for Annualized eGFR Rate of Change (eGFRMDRD), Mean (SEM): Migalastat cohort
Procedure: Another analysis was performed on patients who participated in multiple studies for the use of migalastat. […] Results for […] were compared with changes in […] reported in the literature for untreated patients with Fabry disease (natural history cohort; Schiffmann R et al. Nephrol Dial Transplant. 2009; 24:2102-11) and are shown in Table 15 below: […]

Fabry patients [3] = experiment: Long-term analysis of 12 patients that completed multiple studies: eGFR; assay type: in vivo, human
Excerpt: In addition to the studies described above, other patients also received migalastat therapy in other studies such as dose-finding studies and/or long-term extension studies. […] 12 patients that completed multiple studies were further analyzed. Linear regression was used to calculate the annualized rate of change in […] from baseline.

α-Gal A = experiment: ERT-experienced study: WBC α-Gal A activity; assay type: in vivo, human; conditions: Migalastat 0-18 months
Procedure: as §1
A further analysis of data from these studies examined annualized change in eGFRCKD-EPI, LVMi, WBC α-Gal A activity and plasma lyso-Gb3 levels based on renal function at baseline.

cardiac repolarization = conditions: 150 mg and 1250 mg single doses; cited from earlier work
Fabry patients [4] = experiment: ERT-naïve study: renal function (eGFR); assay type: in vivo, human; conditions: for Annualized Change in eGFRCKD-EPI, mean ± SE: ERT-Naïve; for mean±SEM annualized rate of change of eGFRCKD-EPI: ERT-naïve study, baseline to 18/24 months
Procedure: One study was a 24-month trial, including a 6-month double-blind, placebo-controlled period, in 67 ERT-naïve patients. The other study was an active-controlled, 18-month trial in 57 ERT-experienced patients with a 12-month open-label extension (OLE). Both the ERT-naïve and ERT-experienced studies included Fabry patients having an eGFR of ≥30 mL/min/1.73 m^2. The study designs for these studies are shown in FIGS. 10A-B. In the ERT-naïve study, the primary efficacy parameter was GL-3 inclusions per kidney interstitial capillary. […] A further analysis of data from these studies examined annualized change in […], WBC α-Gal A activity and plasma lyso-Gb3 levels based on renal function at baseline. The results for each renal subgroup are shown in Table 9 below, with the ERT-naïve study subgroups based on […] and the ERT-experienced study subgroups based on mGFRiohexol.

[5] = ERT-naïve study population PK from sparse blood sampling; assay type: in vivo, human; conditions: ERT-naïve Fabry patients
Procedure: Thus, two Fabry patients with renal impairment were evaluated. One patient (P1) had moderate renal impairment, while the other patient (P2) had severe renal impairment. […] The comparison with the results from the ERT-naïve study allows for comparison of PK in the Fabry population with mostly normal, but some mild and a few moderately impaired Fabry patients. None of the patients in the ERT-naïve study had severe renal impairment because these patients were excluded from the study.

[6] = mild or moderate renal impairment
[7] = Migalastat→Migalastat 0-24 months, renal subgroup 30 to < 60
[8] = Migalastat→Migalastat 0-24 months, renal subgroup ≥60
[9] = Placebo→Migalastat 6-24 months, renal subgroup ≥60
[10] = Females, baseline urine protein 100-1000 mg/24 h
[11] = Females, baseline urine protein <100 mg/24 h
[12] = Females, baseline urine protein >1000 mg/24 h
[13] = Males, baseline urine protein 100-1000 mg/24 h
[14] = Males, baseline urine protein <100 mg/24 h
[15] = Males, baseline urine protein >1000 mg/24 h

In the case of OC[C@H]1NC[C@H](O)[C@@H](O)[C@H]1O [migalastat, (2R,3S,4R,5S)-2-(hydroxymethyl) piperdine-3,4,5-triol], the “Annualized Change in eGFRCKD-EPI, mean ± SE” value (“Annualized Change … mean ± SE” below) (Fabry patients [1]; renal subgroup 30 to < 60) is reported as −4.2 ± 2.7 mL/min/1.73 m^2, the “Annualized Change … mean ± SE” value (Fabry patients [1]; renal subgroup ≥60) is reported as −0.4 ± 0.8 mL/min/1.73 m^2 and the “mean annualized rate of change of eGFRCKD-EPI” value (Fabry patients [1]; [6]) is reported as −3.33 mL/min/1.73 m^2/year. The “mean annualized rate of change of eGFRCKD-EPI” value (Fabry patients [1]; normal renal function) was −0.4 mL/min/1.73 m^2/year, the “mean annualized rate of change mGFRiohexol” value (Fabry patients [1]; [6]) was −3.51 mL/min/1.73 m^2/year and the “mean annualized rate of change mGFRiohexol” value (Fabry patients [1]; normal renal function) was −4.35 mL/min/1.73 m^2/year. For the same molecule, the “mean±SE annualized rate of change of eGFRCKD-EPI” value (Fabry patients [1]; mild renal impairment) was −0.2±1.25 mL/min/1.73 m^2/year, the “mean±SE annualized rate of change of eGFRCKD-EPI” value (Fabry patients [1]; moderate renal impairment) was −4.5±2.68 mL/min/1.73 m^2/year and the “mean±SE annualized rate of change of eGFRCKD-EPI” value (Fabry patients [1]; normal renal function) was −2.0±0.57 mL/min/1.73 m^2/year. The “Plasma lyso-Gb3, change from baseline, mean” value (“Plasma lyso-Gb3, change” below) (plasma lyso-GB3; [7]) was -29.0 nmol/L, the “Plasma lyso-Gb3, change” value (plasma lyso-GB3; [8]) was -7.7 nmol/L and the “Plasma lyso-Gb3, change” value (plasma lyso-GB3; [9]) was -20.0 nmol/L. The “Annualized eGFRCKD-EPI Change Rate, Mean (SE)” value (Fabry patients [2]; [10]) was −0.3 (1.0) mL/min/1.73 m^2, the “Annualized eGFRCKD-EPI Change Rate, Mean (SE)” value (Fabry patients [2]; [11]) was −0.9 (0.4) mL/min/1.73 m^2 and the “Annualized eGFRCKD-EPI Change Rate, Mean (SE)” value (Fabry patients [2]; [12]) was −2.2 (1.3) mL/min/1.73 m^2. For the same molecule, the “Annualized eGFRCKD-EPI Change Rate, Mean (SE)” value (Fabry patients [2]; [13]) was 0.2 (0.8) mL/min/1.73 m^2, the “Annualized eGFRCKD-EPI Change Rate, Mean (SE)” value (Fabry patients [2]; [14]) was 0.4 (1.0) mL/min/1.73 m^2 and the “Annualized eGFRCKD-EPI Change Rate, Mean (SE)” value (Fabry patients [2]; [15]) was −5.1 (0.1) mL/min/1.73 m^2. The “Annualized eGFR Rate of Change (eGFRMDRD), Mean (SEM)” value (Fabry patients [2]; [10]) was 1.3 (1.5) mL/min/m^2, the “Annualized eGFR Rate of Change (eGFRMDRD), Mean (SEM)” value (Fabry patients [2]; [11]) was −0.9 (0.5) mL/min/m^2 and the “Annualized eGFR Rate of Change (eGFRMDRD), Mean (SEM)” value (Fabry patients [2]; [12]) was −1.7 (1.1) mL/min/m^2. The “Annualized eGFR Rate of Change (eGFRMDRD), Mean (SEM)” value (Fabry patients [2]; [13]) was 0.9 (1.0) mL/min/m^2, the “Annualized eGFR Rate of Change (eGFRMDRD), Mean (SEM)” value (Fabry patients [2]; [14]) was 1.2 (1.2) mL/min/m^2 and the “Annualized eGFR Rate of Change (eGFRMDRD), Mean (SEM)” value (Fabry patients [2]; [15]) was −4.3 (0.1) mL/min/m^2. The “Annualized Rate of Change in eGFRCKD-EPI” value (Fabry patients [3]; entire duration of migalastat treatment, Patient 1) was −0.853 mL/min/1.72 m^2, the “Annualized Rate of Change in eGFRCKD-EPI” value (Fabry patients [3]; entire duration of migalastat treatment, Patient 2) was 0.584 mL/min/1.72 m^2 and the “Annualized Rate of Change in eGFRCKD-EPI” value (Fabry patients [3]; entire duration of migalastat treatment, Patient 3) was −2.838 mL/min/1.72 m^2. The “Annualized Rate of Change in eGFRCKD-EPI” value (Fabry patients [3]; entire duration of migalastat treatment, Patient 4) was 0.488 mL/min/1.72 m^2, the “Annualized Rate of Change in eGFRCKD-EPI” value (Fabry patients [3]; entire duration of migalastat treatment, Patient 5) was 0.001 mL/min/1.72 m^2 and the “Annualized Rate of Change in eGFRCKD-EPI” value (Fabry patients [3]; entire duration of migalastat treatment, Patient 6) was −2.179 mL/min/1.72 m^2. The “Annualized Rate of Change in eGFRCKD-EPI” value (Fabry patients [3]; entire duration of migalastat treatment, Patient 7) was −0.704 mL/min/1.72 m^2, the “Annualized Rate of Change in eGFRCKD-EPI” value (Fabry patients [3]; entire duration of migalastat treatment, Patient 8) was −1.09 mL/min/1.72 m^2 and the “Annualized Rate of Change in eGFRCKD-EPI” value (Fabry patients [3]; entire duration of migalastat treatment, Patient 9) was −0.443 mL/min/1.72 m^2. The “Annualized Rate of Change in eGFRCKD-EPI” value (Fabry patients [3]; entire duration of migalastat treatment, Patient 10) was 0.219 mL/min/1.72 m^2, the “Annualized Rate of Change in eGFRCKD-EPI” value (Fabry patients [3]; entire duration of migalastat treatment, Patient 11) was −0.342 mL/min/1.72 m^2 and the “Annualized Rate of Change in eGFRCKD-EPI” value (Fabry patients [3]; entire duration of migalastat treatment, Patient 12) was −0.871 mL/min/1.72 m^2. The “Annualized Rate of Change in eGFRCKD-EPI” value (Fabry patients [3]; entire migalastat treatment period (mean exposure 8.2 years), Mean of 12 patients) was −0.67 mL/min/1.72 m^2, the “WBC α-Gal A Activity (males only), change from baseline, mean ± SE” value (α-Gal A; renal subgroup 30 to < 60) was “+4.6 ± 2.3 4MU/hr/mg” and the “WBC α-Gal A Activity (males only), change from baseline, mean ± SE” value (α-Gal A; renal subgroup ≥60) was “+5.5 ± 1.4 4MU/hr/mg”. For the same molecule, the “effect on cardiac repolarization” value (cardiac repolarization) was “negative”, the “Annualized Change … mean ± SE” value (Fabry patients [4]; [7]) was “+3.2 ± 1.1 mL/min/1.73 m^2” and the “Annualized Change … mean ± SE” value (Fabry patients [4]; [8]) was −0.7 ± 0.6 mL/min/1.73 m^2. The “Annualized Change … mean ± SE” value (Fabry patients [4]; Placebo→Migalastat 6-24 months, renal subgroup 30 to < 60) was −2.8 ± 2.8 mL/min/1.73 m^2, the “Annualized Change … mean ± SE” value (Fabry patients [4]; [9]) was “+0.1 ± 0.7 mL/min/1.73 m^2” and the “mean±SEM annualized rate of change of eGFRCKD-EPI” value (Fabry patients [4]; mild renal impairment) was −0.8±1.01 mL/min/1.73 m^2/year. For the same molecule, the “mean±SEM annualized rate of change of eGFRCKD-EPI” value (Fabry patients [4]; moderate renal impairment) was −0.7±3.97 mL/min/1.73 m^2/year, the “mean±SEM annualized rate of change of eGFRCKD-EPI” value (Fabry patients [4]; normal renal function) was 0.2±0.90 mL/min/1.73 m^2/year and the “Comparison to ERT-Naïve Study PK (migalastat concentration)” value ([5]; Pre-dose (0 h)) was 8.70 ng/mL. It also gave a concentration at 3 h ([5]; human, plasma, 3 Hrs Post) of 1180 ng/mL and a concentration at 48 h ([5]; human, plasma, 48 h) of 8.7 ng/mL.
